Results on one compound are retold here after patent US20040019018A1, “Rigid pyrrolidone modulators of pkc” (priority 2003, published 2004).

Experiment [1] relates to sAPP α. The experiment is described as follows: Secreted APP from human fibroblasts, Western blot with 6E10 (Example 14). Type of experiment: cell-based. The note with it: human fibroblasts (AD patients). The procedure:
Human fibroblasts were grown to confluence as above for PKC translocation. On the day of the experiment, cells were rinsed twice with serum-free Dulbecco's modified Eagle's medium (DMEM) and incubated in the same medium for 2 hours. Cells were treated with the drugs above, or DMSO vehicle as a control, for 2 hours. The medium was collected and spun for 5 min in a clinical centrifuge to remove cell debris. Proteins in the cell medium were precipitated using 10% trichloroacetic acid (TCA). Precipitated proteins were dissolved in electrophoresis buffer, separated on 8% SDS-PAGE as described above. Secreted APP was detected by Western blotting using a specific monoclonal antibody, 6E10.
(Immunoblotting shows a protein as a band on a membrane.)

Experiment [2] relates to soluble APPα (sAPPα). The experiment is described as follows: Secretion of soluble APPα from human fibroblasts (Example 15). Type of experiment: cell-based. The conditions noted are these: 10-20 μM, 2 hours. The procedure: Human fibroblasts from Alzheimer's patients (AD, cell line AG06848) or age-matched controls (AC, cell line AG07141) were grown to near confluence in DMEM containing 10% fetal bovine serum. On the day of the experiments, cells were rinsed twice with DMEM with no serum and incubated with the same […] for 2 hours at 37° C., 5% CO2. Cells were incubated for 2 additional hours with different concentrations of the drugs or equal volume of DMSO vehicle as control. The medium was collected and centrifuged at 1000 rpm to remove cell debris. Proteins were precipitated by addition of equal volume of 20% ice-cold tricholoroacetic acid (TCA) and incubation on ice for 60 minutes. The protein pellets were washed with ice-cold acetone and centrifuged for 30 minutes at 20,000 g for 30 minutes and dried overnight. Pellets were dissolved in electrophoresis buffer and proteins corresponding to the same concentration of protein were separated by SDS-PAGE and transferred to PVDF membranes according to the manufacturer's instructions. After electrophoresis, the membranes were blocked with Blotto and incubated overnight with a monoclonal antibody 6E10 (Synetek) that recognizes the APPα. After incubation with the secondary antibody, alkaline phosphatase anti-mouse IgG (Jackson's Laboratories), the membranes were developed using an alkaline phosphatase kit (BioRad) as per the manufacturer's instructions.

In the case of `CCCCCCCCC#Cc1ccc2c(c1)C(C)(C(C)C)C1C(=O)NC(CO)C21` [Compound 1, (3S, 8R, 9S, 10S)-6-(dec-1′-ynyl)-3-hydroxymethyl-8-isopropyl-8-methyl-3,3a,8,8a-tetrahydro-2H-2-aza-cyclopenta[a]inden-1-one], the “secretion of sAPP” value in experiment [1] is recorded as “increased the secretion of sAPP”. Further, the “secretion of soluble APPα (sAPPα)” value in experiment [2] is listed as “increased the secretion of soluble APPα (sAPPα) significantly”.
